Measured values taken from patent publication US10385030B2, “Cationic lipid” (NOF CORPORATION, priority 2015, dated 2019).
Entries after “also recorded” stand apart in the source; their conditions may differ. Values belong to the molecule of their own block, whether it stands above or below them.

Columns and labels:
4T1 tumor = experiment: Gene expression activity (gene delivery into tumor) in vivo (Experimental Example 8); parameters: species or system BALB/c mice; details: MEND encapsulating pDNA, tail vein, 25 mg DNA, 48 hr; FIG. 6
Protocol: Various MENDs were prepared according to the method described in [Experimental Example 6]. Cancer-carrying mice were produced by subcutaneous administration of a suspension of mouse breast cancer-derived cancer cell line 4T1 cells (1×10^6 cells/mouse) to 6-week-old female BALB/c mice. At 7 days after the subcutaneous transplantation of the cancer cells, the prepared MEND solutions were administered each in an amount corresponding to […] from the tail vein. The mice were euthanized by a cervical spine […] method at 48 hr after the administration, the tumor was isolated and frozen with liquid nitrogen. The tumor was lysed in a Lysis buffer to prepare homogenate. The homogenate was centrifuged at 13,000 rpm, 10 min, 4° C., and the supernatant was collected and used as a measurement sample. The sample solution (20 μL) was mixed with a luciferase substrate (50 μL), and the luciferase activity was measured using Luminescenser-PSN (AB2200 ATTO). In addition, the concentration of the protein in the sample was quantified using a BCA protein assay kit, and the gene expression activity was measured as RLU/mg protein.

[1] = Particle size and surface potential of MENDs by dynamic light scattering (Experimental Example 6); type: physicochemical
Protocol: Various MENDs were prepared by the ethanol dilution method in [Experimental Example 1] (2), and DOPC was used as a phospholipid. PEG5000-DSG was used as a PEG lipid, and an amount corresponding to 5 mol % of the total lipid was added in Myr-C3M MEND, and an amount corresponding to 10 mol % was added in TS-PZ4C2 MEND.
pDNA solution (1 mg/mL), 100 mM malic acid buffer (pH 4.0), 5 M aqueous sodium chloride solution and sterilized water were mixed, and a solution having a final concentration of 0.1 mg/mL, 20 mM, 40 mM, respectively, was prepared and used as a DNA solution.
A lipid solution in ethanol was prepared by mixing 5 mM cationic lipid (L-PZ4C2, O-PZ4C2), 10 mM cholesterol (Chol), and 10 mM DOPC at desired ratios to achieve 840 nmol total lipid in a 5 mL tube, further adding PEG5000-DSG (1 mM ethanol solution) in an amount corresponding to 5 mol % of the total lipid, and adding ethanol to achieve a total amount of 200 μL (80% ethanol solution) and 20 mM malic acid buffer (pH 4.0). While stirring the lipid solution in a vortex mixer, the above-mentioned DNA solution (200 μL) was quickly added, after which 20 mM malic acid buffer (pH 4.0) (1600 μL) was added, phosphate buffered saline was added, and the mixture was diluted to an ethanol concentration of 8%. Similar operation was repeated three times and phosphate buffered saline was added to an ethanol concentration of 4%. Thereafter, using Amicon Ultra 15 (Millipore), the mixture was concentrated to about 200 μL by ultrafiltration under centrifugation condition (room temperature, 2267 rpm, 30 min). Thereafter, the mixture was diluted with phosphate buffered saline to 15 mL, and concentrated again by centrifugation (2267 rpm, for 30 min) under room temperature conditions. Finally, it was diluted to a desired lipid concentration with phosphate buffered saline.
The particle size and the surface potential were measured by the dynamic light scattering method (Zetasizer Nano).

[2] = compared to DOTAP, DODAP; known from patent document 1; cited from earlier work
[3] = Particle size and surface potential of MENDs by dynamic light scattering (Experimental Example 1); type: physicochemical
Protocol: A solution of pDNA encoding luciferase gene and a protamine (manufactured by CALBIOCHEM) solution were diluted with 10 mM HEPES buffer to 0.15 mg/mL and 96.3 μg/mL, respectively. While stirring 0.15 mg/mL pDNA solution (100 μL), 96.3 μg/mL protamine (100 μL) was added dropwise in small portions to prepare an electrostatic complex of protamine and pDNA (N/P ratio=1.0) as a core of the vector.
A lipid solution in ethanol was prepared by mixing 5 mM cationic lipid (Myr-C3M), 5 mM phospholipid (SOPC) and 5 mM cholesterol (Chol) at desired ratios to achieve 330 nmol total lipid in an Eppendorf tube, further adding PEG2000-DSG (1 mM ethanol solution) in an amount corresponding to 3 mol % of the total lipid, and adding ethanol to achieve a total volume of 200 μL. While stirring the lipid solution in a vortex mixer, 200 μL of the nucleic acid electrostatic complex (10 mM HEPES; pH 5.3) prepared in [Experimental Example 1] (1) was quickly added, and thereafter 10 mM HEPES buffer (1.6 mL, adjusted to pH 5.3) was added. Furthermore, 10 mM HEPES buffer (2 mL) adjusted to pH 5.3 was added to dilute the mixture to an ethanol concentration of 5%. The mixture was concentrated to about 50 μL by ultrafiltration using Amicon Ultra 4 (Millipore) under centrifugation conditions (room temperature, 1000 g, 15 min). Thereafter, it was diluted to 4 mL with 100 mM HEPES buffer (adjusted to pH 7.4), and again concentrated by centrifugation (1000 g, 15 min) under room temperature conditions. Thereafter, it was diluted to 4 mL with 10 mM HEPES buffer (pH 7.4), and again concentrated by centrifugation (1000 g, 15 min) under room temperature conditions. Finally, it was diluted with 10 mM HEPES buffer (pH 7.4) to a desired lipid concentration.
pDNA solution (1 mg/mL), 100 mM malic acid buffer (pH 4.0), 5 M aqueous sodium chloride solution and sterilized water were mixed, and a solution having final concentrations of 0.1 mg/mL, 20 mM, 40 mM, respectively, was prepared and used as a DNA solution.
A lipid solution in ethanol was prepared by mixing 5 mM cationic lipid (TS-PZ4C2 or TS-C3M), and 10 mM cholesterol (Chol) at desired ratios to achieve 600 nmol total lipid in a 5 mL tube, further adding PEG2000-DMG (5 mM ethanol solution) in an amount corresponding to 3 mol % of the total lipid, and adding ethanol to achieve a total volume of 200 μL. While stirring the lipid solution in a vortex mixer, the above-mentioned DNA solution (300 μL) was quickly added, after which 20 mM malic acid buffer (pH 4.0, containing 100 mM sodium chloride) (500 μL) was added, and phosphate buffered saline was added to dilute the mixture to the ethanol concentration of 10%. Similar operation was repeated three times and phosphate buffered saline was added to an ethanol concentration of 5%. Thereafter, the mixture was concentrated to about 200 μL by ultrafiltration using Amicon Ultra 15 (Millipore, under centrifugation conditions (room temperature, 2267 rpm, 20 min). Thereafter, it was diluted to 15 ml with phosphate buffered saline, and again concentrated by centrifugation (2267 rpm, 20 min) under conditions of room temperature. Finally, it was diluted with phosphate buffered saline to a desired lipid concentration.
The particle size and the surface potential were measured by the dynamic light scattering method (Zetasizer Nano; Malvern Instruments Ltd.).

[4] = MEND of L-PZ4C2, cationic lipid:DOPC:Chol = 6:1:3, PEG5000-DSG 5 mol %
[5] = MEND of Myr-C3M, cationic lipid:SOPC:Chol = 3:4:3, PEG2000-DSG 3 mol %
[6] = MEND of Myr-C3M, cationic lipid:DOPC:Chol = 3:4:3, PEG5000-DSG 5 mol %
[7] = MEND of TS-PZ4C2, cationic lipid:Chol = 7:3, PEG2000-DMG 3 mol %
[8] = MEND of TS-PZ4C2, cationic lipid:Chol = 7:3, PEG5000-DSG 10 mol %
[9] = MEND of TS-C3M, cationic lipid:Chol = 7:3, PEG2000-DMG 3 mol %
[10] = MEND of O-PZ4C2, cationic lipid:DOPC:Chol = 6:1:3, PEG5000-DSG 5 mol %

PdI [3, 7]: 0.041
particle size [3, 7]: 126.8 nm
zeta potential [3, 7]: −7.38 mV
PdI [1, 8]: 0.121
particle size [1, 8]: 104.8 nm
zeta potential [1, 8]: −0.897 mV
Compound: Cc1c(C)c2c(c(C)c1OC(=O)CCC(=O)OCCN1CCN(CCSSCCN3CCN(CCOC(=O)CCC(=O)Oc4c(C)c(C)c5c(c4C)CCC(C)(CCCC(C)CCCC(C)CCCC(C)C)O5)CC3)CC1)CCC(C)(CCCC(C)CCCC(C)CCCC(C)C)O2 (stereo not shown) [TS-PZ4C2]

PdI [3, 9]: 0.08
particle size [3, 9]: 141.3 nm
zeta potential [3, 9]: −5.4 mV
Compound: Cc1c(C)c2c(c(C)c1OC(=O)CCC(=O)OCCCN(C)CCSSCCN(C)CCCOC(=O)CCC(=O)Oc1c(C)c(C)c3c(c1C)CCC(C)(CCCC(C)CCCC(C)CCCC(C)C)O3)CCC(C)(CCCC(C)CCCC(C)CCCC(C)C)O2 (stereo not shown) [TS-C3M]
nucleic acid delivery efficiency [2]: high nucleic acid delivery efficiency as compared to cationic lipids such as DOTAP, DODAP

PdI [1, 10]: 0.083
particle size [1, 10]: 115.2 nm
zeta potential [1, 10]: −0.294 mV
Compound: CCCCCCCC/C=C\CCCCCCCC(=O)OCCN1CCN(CCSSCCN2CCN(CCOC(=O)CCCCCCC/C=C\CCCCCCCC)CC2)CC1 [O-PZ4C2]
gene delivery expression activity to tumor (luciferase activity, RLU/mg protein) (4T1 tumor): higher gene delivery expression activity to tumor than the lipid membrane structures using the cationic lipids of Comparative Example 1

Continued, molecule first:

Compound: CCCCC/C=C\C/C=C\CCCCCCCC(=O)OCCN1CCN(CCSSCCN2CCN(CCOC(=O)CCCCCCC/C=C\C/C=C\CCCCC)CC2)CC1 [L-PZ4C2]
gene delivery expression activity to tumor (luciferase activity, RLU/mg protein) (4T1 tumor): higher gene delivery expression activity to tumor than the lipid membrane structures using the cationic lipids of Comparative Example 1
PdI [1, 4]: 0.094
particle size [1, 4]: 108.7 nm
zeta potential [1, 4]: 0.144 mV

Compound: CCCCCCCCCCCCCC(=O)OCCCN(C)CCSSCCN(C)CCCOC(=O)CCCCCCCCCCCCC [Myr-C3M]
nucleic acid delivery efficiency [2]: high nucleic acid delivery efficiency as compared to cationic lipids such as DOTAP, DODAP; also recorded: higher nucleic acid delivery efficiency as compared to conventional cationic lipids such as DOTAP, DODAP
PdI [3, 5]: 0.188
particle size [3, 5]: 128.3 nm
zeta potential [3, 5]: 1.88 mV
PdI [1, 6]: 0.134
particle size [1, 6]: 113.9 nm
zeta potential [1, 6]: −0.135 mV
